From ChEMBL document CHEMBL1201862, “PubChem BioAssay data set” (2004)
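Where inhibition never reached the appropriate level, the endpoint shown equals the highest concentration tested. Otherwise, values were interpolated linearly from a five-concentration, 48-hour dose response in 96-well plates. GI50 is the concentration that inhibits growth by half.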 Activity calls are given as the source filed them. Rule as the data show it: active = GI50 up to about 1.1 µM and inactive = higher.

Key:
Assay in all cases: NCI anticancer screen, dose series, 48 h
MDA-MB-435 = system: MDA-MB-435
NCI-H522 = system: NCI-H522
NCI-H23 = system: NCI-H23
OVCAR-3 = system: OVCAR-3
NCI/ADR-RES = system: NCI/ADR-RES
RPMI-8226 = system: RPMI-8226
SF-295 = system: SF-295
HL-60 = system: HL-60
COLO 205 = system: COLO 205
MCF7 = system: MCF7
EKVX = system: EKVX
TK-10 = system: TK-10
SR = system: SR
IGROV-1 = system: IGROV-1
HCT-116 = system: HCT-116
SK-MEL-5 = system: SK-MEL-5
NCI-H460 = system: NCI-H460
CAKI-1 = system: CAKI-1
HCC 2998 = system: HCC 2998

Measured: GI50

CC(=O)OC1CC2(C)C(=CC1C1SCCS1)CCC1C2CCC2(C)C(OC(C)=O)CCC12 (stereo not given)
inactive: MDA-MB-435 > 100 µM | NCI-H522 37 µM | NCI-H23 > 100 µM | OVCAR-3 > 100 µM | NCI/ADR-RES > 100 µM | RPMI-8226 > 100 µM | SF-295 23.4 µM | HL-60 > 100 µM | COLO 205 > 100 µM | MCF7 68.4 µM | EKVX > 100 µM | TK-10 64.1 µM | SR > 100 µM | IGROV-1 > 100 µM | HCT-116 > 100 µM | SK-MEL-5 > 100 µM | NCI-H460 > 100 µM | CAKI-1 > 100 µM

COc1cccc(Nc2nc(-c3cccs3)nc3cc(OC)c(OC)cc23)c1
inactive: MDA-MB-435 31.3 µM | NCI-H522 18.9 µM | NCI-H23 32.4 µM | OVCAR-3 24.3 µM | NCI/ADR-RES 24.3 µM | RPMI-8226 13.2 µM | SF-295 23.4 µM | HL-60 42.1 µM | COLO 205 23.2 µM | MCF7 24.5 µM | EKVX 35.8 µM | TK-10 33.4 µM | SR 11 µM | IGROV-1 21.6 µM | HCT-116 26.4 µM | SK-MEL-5 25.4 µM | NCI-H460 28.8 µM | CAKI-1 29 µM

O=C1N/C(=N/N=C/C(O)C(O)C(O)CO)N/C1=C\c1c[nH]c2ccccc12 (stereo not given)
inactive: MDA-MB-435 > 100 µM | NCI-H522 > 100 µM | NCI-H23 > 100 µM | OVCAR-3 > 100 µM | NCI/ADR-RES > 100 µM | RPMI-8226 > 100 µM | SF-295 > 100 µM | HL-60 > 100 µM | COLO 205 > 100 µM | MCF7 > 100 µM | EKVX > 100 µM | TK-10 > 100 µM | IGROV-1 > 100 µM | HCT-116 > 100 µM | SK-MEL-5 > 100 µM | NCI-H460 > 100 µM | HCC 2998 > 100 µM | CAKI-1 > 100 µM

COc1cc(/C=C/C(=O)c2ccc(NS(=O)(=O)c3cc([N+](=O)[O-])ccc3C)cc2)cc(OC)c1OC
inactive: MDA-MB-435 3.71 µM | NCI-H23 3.05 µM | OVCAR-3 3.15 µM | NCI/ADR-RES 8.41 µM | RPMI-8226 1.96 µM | SF-295 4.61 µM | HL-60 3.37 µM | COLO 205 4.26 µM | MCF7 2.77 µM | EKVX 5.36 µM | TK-10 3.96 µM | SR 1.82 µM | IGROV-1 3.88 µM | HCT-116 2.38 µM | SK-MEL-5 4.18 µM | CAKI-1 3.74 µM

COc1ccc(/C=C/c2nsc(/C=C/c3ccc(OC)cc3)n2)cc1
inactive: MDA-MB-435 85.1 µM | NCI-H522 39.6 µM | OVCAR-3 > 100 µM | NCI/ADR-RES > 100 µM | RPMI-8226 28.7 µM | SF-295 > 100 µM | HL-60 24.8 µM | COLO 205 > 100 µM | MCF7 > 100 µM | EKVX > 100 µM | TK-10 > 100 µM | SR 27.3 µM | IGROV-1 > 100 µM | HCT-116 > 100 µM | SK-MEL-5 > 100 µM | NCI-H460 24.9 µM | CAKI-1 > 100 µM

O=C(O)CNc1ncc2c(n1)-c1ccccc1OC2
inactive: MDA-MB-435 > 100 µM | NCI-H23 > 100 µM | OVCAR-3 > 100 µM | NCI/ADR-RES > 100 µM | RPMI-8226 > 100 µM | SF-295 > 100 µM | HL-60 64.3 µM | COLO 205 > 100 µM | MCF7 > 100 µM | EKVX > 100 µM | TK-10 > 100 µM | SR > 100 µM | IGROV-1 > 100 µM | HCT-116 > 100 µM | SK-MEL-5 > 100 µM | NCI-H460 > 100 µM | CAKI-1 > 100 µM

CCOC(=O)CCC(C(=O)OCC)n1nnc2cc(Nc3c(C)[n+]([O-])c4cc(F)c(OCC)cc4[n+]3[O-])ccc21 (stereo not given)
inactive: MDA-MB-435 > 100 µM | NCI-H522 > 100 µM | NCI-H23 67.8 µM | OVCAR-3 > 100 µM | NCI/ADR-RES > 100 µM | RPMI-8226 > 100 µM | SF-295 40.9 µM | HL-60 > 100 µM | COLO 205 > 100 µM | MCF7 > 100 µM | EKVX > 100 µM | TK-10 48.3 µM | SR > 100 µM | IGROV-1 > 100 µM | HCT-116 > 100 µM | SK-MEL-5 > 100 µM | NCI-H460 > 100 µM | CAKI-1 > 100 µM

CCc1ccccc1NC(=O)C(=O)CC(=O)c1sc(Nc2ccccc2Cl)nc1C
inactive: MDA-MB-435 25.6 µM | NCI-H522 18.1 µM | NCI-H23 30.3 µM | OVCAR-3 19.5 µM | NCI/ADR-RES 25.8 µM | RPMI-8226 19.2 µM | SF-295 28.2 µM | HL-60 47 µM | COLO 205 22.2 µM | MCF7 18.2 µM | EKVX 52.4 µM | TK-10 59.6 µM | IGROV-1 40 µM | HCT-116 17.9 µM | SK-MEL-5 17.6 µM | NCI-H460 21.2 µM | HCC 2998 30.1 µM | CAKI-1 46.1 µM
